Data reported in the supplement of paper PMC10307832.

Key:
Assay in all cases: relative viability (nuclei count vs DMSO), 5 days (fraction); higher = more cells survive
[1] = compound: C1/C(=C\C2=CC=CS2)/C(=O)/C(=C/C3=CC=CS3)/C1 + CS(=O)(=O)CCNCc1ccc(-c2ccc3ncnc(Nc4ccc(OCc5cccc(F)c5)c(Cl)c4)c3c2)o1 [Lapatinib] (partner 2 µM)
Procedure, shortened: (§1)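 Nuclei were stained with Hoechst during a one-step fixation (final 0.05% Triton X-100, 1% formaldehyde, 1 ug/ml Hoechst) carried out 5 days after dosing, then counted on 4× images. The cells, lung cancer lines in 1536-well plates, had been dosed by pin tool the day after seeding with one drug alone or a fixed anchor-drug dose plus five library-drug doses (not always all listed) in √10 steps. Relative viability is the nuclei count in treated wells divided by that in vehicle wells, and each value is the median of duplicate plates.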

[2] = compound: C1/C(=C\C2=CC=CS2)/C(=O)/C(=C/C3=CC=CS3)/C1 + CCNC(=O)c1noc(-c2cc(C(C)C)c(O)cc2O)c1-c1ccc(CN2CCOCC2)cc1 [Luminespib] (partner 0.01 µM)
Procedure, shortened: as §1

TPCA-1 + Navitoclax = compound: C1=CC(=CC=C1C2=CC(=C(S2)NC(=O)N)C(=O)N)F [TPCA-1] + CC1(C)CCC(c2ccc(Cl)cc2)=C(CN2CCN(c3ccc(C(=O)NS(=O)(=O)c4ccc(N[C@H](CCN5CCOCC5)CSc5ccccc5)c(S(=O)(=O)C(F)(F)F)c4)cc3)CC2)C1 [Navitoclax] (partner 0.5 µM)
Procedure, shortened: as §1

Lestaurtinib + OSI-027 = compound: C[C@]12O[C@H](C[C@]1(O)CO)n1c3ccccc3c3c4c(c5c6ccccc6n2c5c31)CNC4=O [Lestaurtinib] + COc1cccc2cc(-c3nc([C@H]4CC[C@H](C(=O)O)CC4)n4ncnc(N)c34)[nH]c12 [OSI-027] (partner 0.5 µM)
Procedure, shortened: as §1

Row | Cell Line | relative viability ([1]; first compound 0.2 µM) | relative viability ([1]; first compound 0.6325 µM) | relative viability ([1]; first compound 2 µM) | relative viability ([1]; first compound 6.325 µM) | relative viability ([1]; first compound 20 µM) | relative viability ([2]; first compound 0.2 µM) | relative viability ([2]; first compound 0.6325 µM) | relative viability ([2]; first compound 2 µM) | relative viability ([2]; first compound 6.325 µM) | relative viability ([2]; first compound 20 µM) | relative viability (TPCA-1 + Navitoclax; first compound 0.04 µM) | relative viability (TPCA-1 + Navitoclax; first compound 0.1265 µM) | relative viability (TPCA-1 + Navitoclax; first compound 0.4 µM) | relative viability (TPCA-1 + Navitoclax; first compound 1.265 µM) | relative viability (TPCA-1 + Navitoclax; first compound 4 µM) | relative viability (Lestaurtinib + OSI-027; first compound 0.005 µM) | relative viability (Lestaurtinib + OSI-027; first compound 0.01581 µM) | relative viability (Lestaurtinib + OSI-027; first compound 0.05 µM) | relative viability (Lestaurtinib + OSI-027; first compound 0.1581 µM) | relative viability (Lestaurtinib + OSI-027; first compound 0.5 µM)
1 | NCI-H727 | 0.735 | 0.877 | 1.02 | 0.701 | 0.752 | 0.428 | 0.336 | 0.433 | 0.477 | 0.308 | 0.409 | 0.431 | 0.512 | 0.413 | 0.404 | 0.614 | 0.675 | 0.525 | 0.698 | 0.498
2 | HARA | 0.768 | 0.657 | 0.874 | 0.321 | 0.818 | 0.785 | 0.923 | 1.09 | 0.853 | 0.791 | 1.13 | 1.08 | 1.16 | 1.08 | 1.08 | 0.629 | 0.469 | 0.324 | 0.278 | 0.104
3 | NCI-H2228 | 1.22 | 1.12 | 1.14 | 0.939 | 1 | 0.158 | 0.167 | 0.179 | 0.133 | 0.134 | 0.758 | 0.68 | 1.18 | 0.656 | 0.595 | 0.528 | 0.627 | 0.349 | 0.294 | 0.104
4 | LCLC-97TM1 | 1.14 | 0.806 | 1.15 | 0.955 | 1.18 | 0.734 | 0.813 | 0.754 | 0.782 | 0.803 | 0.394 | 0.494 | 0.446 | 0.259 | 0.238 | 0.547 | 0.42 | 0.125 | 0.215 | 0.182
5 | LC-2-ad | 0.891 | 1.03 | 0.939 | 0.747 | 0.973 | 1.2 | 1.14 | 1.12 | 1.04 | 0.961 | 0.361 | 0.377 | 0.414 | 0.357 | 0.11 | 0.892 | 0.783 | 0.506 | 0.483 | 0.304
6 | SK-LU-1 | 0.91 | 0.787 | 0.846 | 0.721 | 0.922 | 0.204 | 0.191 | 0.202 | 0.181 | 0.214 | 0.962 | 0.785 | 0.789 | 0.7 | 0.566 | 0.296 | 0.255 | 0.211 | 0.295 | 0.181
7 | EKVX | 0.184 | 0.207 | 0.264 | 0.185 | 0.199 | 0.914 | 0.83 | 0.904 | 0.678 | 0.842 | 0.956 | 0.818 | 0.913 | 0.793 | 0.836 | 0.773 | 0.697 | 0.79 | 0.717 | 0.602
8 | HCC-827 | 0.21 | 0.177 | 0.205 | 0.191 | 0.204 | 0.85 | 0.608 | 0.454 | 0.592 | 0.636 | 0.996 | 1.04 | 1.04 | 1 | 0.683 | 0.781 | 0.727 | 0.459 | 0.626 | 0.659
9 | NCI-H650 | 0.944 | 1.17 | 1.05 | 0.925 | 0.989 | 0.901 | 0.701 | 0.826 | 0.735 | 0.944 | – | – | – | – | – | 0.536 | 0.6 | 0.441 | 0.364 | 0.313
10 | CAL-12T | 0.774 | 0.827 | 0.74 | 0.604 | 0.606 | 0.374 | 0.316 | 0.404 | 0.444 | 0.364 | 1.1 | 1.15 | 1.17 | 1.16 | 1.11 | 0.699 | 0.698 | 0.515 | 0.36 | 0.278
11 | NCI-H2342 | – | – | – | – | – | 0.761 | 0.654 | 0.767 | 0.615 | 0.8 | – | – | – | – | – | 0.571 | 0.672 | 0.547 | 0.648 | 0.549
12 | SW 900 | – | – | – | – | – | 0.16 | 0.173 | 0.181 | 0.175 | 0.156 | – | – | – | – | – | 0.561 | 0.702 | 0.623 | 0.522 | 0.527
13 | IA-LM | 1.08 | 0.749 | 0.779 | 0.757 | 0.67 | – | – | – | – | – | 0.855 | 0.595 | 0.72 | 0.617 | 0.678 | – | – | – | – | –
14 | EPLC-272H | 1.04 | 0.952 | 1.1 | 0.889 | 0.962 | 0.53 | 0.326 | 0.267 | 0.513 | 0.561 | 1.28 | 0.969 | 0.934 | 1.01 | 0.821 | 0.288 | 0.278 | 0.222 | 0.223 | 0.166
15 | A-427 | 1.09 | 1.01 | 1.01 | 1.02 | 0.982 | 1.01 | 0.905 | 0.939 | 0.876 | 0.977 | 0.945 | 0.898 | 0.997 | 0.899 | 0.93 | 0.473 | 0.402 | 0.257 | 0.233 | 0.146
16 | NCI-H647 | 1.13 | 1.26 | 1.28 | 0.763 | 1 | 0.154 | 0.186 | 0.149 | 0.203 | 0.158 | 1.1 | 0.9 | 1.22 | 0.67 | 0.706 | 0.6 | 0.562 | 0.28 | 0.205 | 0.143
17 | NCI-H1975 | 1.01 | 0.789 | 0.966 | 0.613 | 0.823 | 0.313 | 0.163 | 0.194 | 0.312 | 0.177 | 1.16 | 1.02 | 1.1 | 0.904 | 0.782 | 0.795 | 0.75 | 0.534 | 0.412 | 0.347
